For assay [1], the system named is human prostate cancer LNCaP cells. Kind of assay: Cytotoxic action on cancer cells (WST-8, 96 hr). The format is cell-based. The settings on record: Homo sapiens, LNCaP, 96 h, read-out: LNCaP cytotoxic activity: IC50. Put shortly: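 Viable cell number, measured by WST-8, is compared with compound-free cultures after treatment. Cells are kept in 10% FBS/RPMI1640 at 37° C under 5% CO2, and IC50 comes from the line joining the two survival rates that bracket 50%.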
In general terms: Tetrazolium dyes change colour on reduction, which living cells bring about.

The target of the next assay is BRD4 protein (Homo sapiens (Human), UniProt O60885). Kind of assay: BRD4 protein degradation inducing action in cancer cells (immunofluorescence, Operetta). The assay is classed as cell-based. The settings on record: LNCaP cells, 6 hr treatment, fluorescence intensity. Put shortly:
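LNCaP prostate cancer cells in 10% FBS/RPMI1640 were exposed to compound for 6 hr at 37° C, then fixed, permeabilized and immunostained for BRD4 with Alexa Fluor 488 or 546 secondary antibodies plus Hoechst nuclear stain. Fluorescence was read by high-content imaging; DC50 is the concentration giving 50% of untreated signal, interpolated linearly between bracketing points.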

Broadly, the IC50 is the point on the concentration scale where inhibition reaches its midpoint. In general, DC50 refers to the concentration giving 50% degradation. Read a high DC50 as a less potent degrader. Consider `COC(=O)C[C@@H]1N=C(c2ccc(-c3ccc(CCC(=O)N[C@H](C(=O)N4C[C@H](O)C[C@H]4C(=O)N[C@@H](C)c4ccc(-c5scnc5C)cc4)C(C)(C)C)cc3)cc2)c2c(sc(C)c2C)-n2c(C)nnc21` [Example 28, methyl [(6S)-4-{4′-[3-({(2S)-1-[(2S,4R)-4-hydroxy-2-({(1S)-1-[4-(4-methyl-1,3-thiazol-5-yl)phenyl]ethyl}carbamoyl)pyrrolidin-1-yl]-3,3-dimethyl-1-oxobutan-2-yl}amino)-3-oxopropyl][1,1′-biphenyl]-4-yl}-2,3,9-trimethyl-6H-thieno[3,2-f][1,2,4]triazolo[4,3-a][1,4]diazepin-6-yl]acetate], for which the IC50 in assay [1] is 0.044 nM. The DC50 on BRD4 protein is 0.023 nM.

Consider `COC(=O)C[C@@H]1N=C(c2ccc(-c3ccc(C(=O)N[C@H](C(=O)N4C[C@H](O)C[C@H]4C(=O)N[C@@H](C)c4ccc(-c5scnc5C)cc4)C(C)C)cc3)cc2)c2c(sc(C)c2C)-n2c(C)nnc21` [Example 210, methyl {(6S)-4-[4′-({(2S)-1-[(2S,4R)-4-hydroxy-2-({(1S)-1-[4-(4-methyl-1,3-thiazol-5-yl)phenyl]ethyl}carbamoyl)pyrrolidin-1-yl]-3-methyl-1-oxobutan-2-yl}carbamoyl)[1,1′-biphenyl]-4-yl]-2,3,9-trimethyl-6H-thieno[3,2-f][1,2,4]triazolo[4,3-a][1,4]diazepin-6-yl}acetate], for which the IC50 in assay [1] was determined as 0.29 nM. For the same compound, the DC50 at BRD4 protein worked out at 0.26 nM.

As for `COC(=O)C[C@@H]1N=C(c2ccc(-c3c(F)ccc(C(=O)N[C@H](C(=O)N4C[C@H](O)C[C@H]4C(=O)N[C@@H](C)c4ccc(-c5scnc5C)cc4)C(C)(C)C)c3F)cc2)c2c(sc(C)c2C)-n2c(C)nnc21` [Example 174, methyl {(6S)-4-[2′,6′-difluoro-3′-({(2S)-1-[(2S,4R)-4-hydroxy-2-({(1S)-1-[4-(4-methyl-1,3-thiazol-5-yl)phenyl]ethyl}carbamoyl)pyrrolidin-1-yl]-3,3-dimethyl-1-oxobutan-2-yl}carbamoyl)[1,1′-biphenyl]-4-yl]-2,3,9-trimethyl-6H-thieno[3,2-f][1,2,4]triazolo[4,3-a][1,4]diazepin-6-yl}acetate], the IC50 in assay [1] was 0.37 nM. The same compound displayed a DC50 on BRD4 protein of 0.31 nM.

In the case of `COC(=O)C[C@@H]1N=C(c2ccc(-c3ccc(OCC(=O)N[C@H](C(=O)N4C[C@H](O)C[C@H]4C(=O)N[C@@H](C)c4ccc(-c5scnc5C)cc4)C(C)(C)C)nc3)cc2)c2c(sc(C)c2C)-n2c(C)nnc21` [Example 63, methyl [(6S)-4-(4-{6-[2-({(2S)-1-[(2S,4R)-4-hydroxy-2-({(1S)-1-[4-(4-methyl-1,3-thiazol-5-yl)phenyl]ethyl}carbamoyl)pyrrolidin-1-yl]-3,3-dimethyl-1-oxobutan-2-yl}amino)-2-oxoethoxy]pyridin-3-yl}phenyl)-2,3,9-trimethyl-6H-thieno[3,2-f][1,2,4]triazolo[4,3-a][1,4]diazepin-6-yl]acetate], the IC50 in assay [1] came to 0.037 nM. In addition, the DC50 on BRD4 protein was found to be 0.11 nM.

Take `COC(=O)C[C@@H]1N=C(c2ccc(-c3ccc4c(c3)N(CC(=O)N[C@H](C(=O)N3C[C@H](O)C[C@H]3C(=O)N[C@@H](C)c3ccc(-c5scnc5C)cc3)C(C)(C)C)C(=O)CC4)cc2)c2c(sc(C)c2C)-n2c(C)nnc21` [Example 146, methyl [(6S)-4-(4-{1-[2-({(2S)-1-[(2S,4R)-4-hydroxy-2-({(1S)-1-[4-(4-methyl-1,3-thiazol-5-yl)phenyl]ethyl}carbamoyl)pyrrolidin-1-yl]-3,3-dimethyl-1-oxobutan-2-yl}amino)-2-oxoethyl]-2-oxo-1,2,3,4-tetrahydroquinolin-7-yl}phenyl)-2,3,9-trimethyl-6H-thieno[3,2-f] [1,2,4]triazolo[4,3-a][1,4]diazepin-6-yl]acetate]: the IC50 in assay [1] came out at 0.44 nM. Further, the DC50 at BRD4 protein is 0.46 nM.

As to `COC(=O)C[C@@H]1N=C(c2ccc(-c3ccc(O[C@H]4C[C@H](C(=O)N[C@H](C(=O)N5C[C@H](O)C[C@H]5C(=O)N[C@@H](C)c5ccc(-c6scnc6C)cc5)C(C)(C)C)C4)nc3)cc2)c2c(sc(C)c2C)-n2c(C)nnc21` [Example 165, methyl {(6S)-4-[4-(6-{[trans-3-({(2S)-1-[(2S,4R)-4-hydroxy-2-({(1S)-1-[4-(4-methyl-1,3-thiazol-5-yl)phenyl]ethyl}carbamoyl)pyrrolidin-1-yl]-3,3-dimethyl-1-oxobutan-2-yl}carbamoyl)cyclobutyl]oxy}pyridin-3-yl)phenyl]-2,3,9-trimethyl-6H-thieno[3,2-f][1,2,4]triazolo[4,3-a] [1,4]diazepin-6-yl}acetate], in assay [1], the IC50 stood at 0.26 nM. Also, half-maximal degradation on BRD4 protein (DC50) was put at 0.041 nM.

In the case of `COC(=O)C[C@@H]1N=C(c2ccc(-c3cc(C(=O)N[C@H](C(=O)N4C[C@H](O)C[C@H]4C(=O)N[C@@H](C)c4ccc(-c5scnc5C)cc4)C(C)(C)C)ccc3F)cc2)c2c(sc(C)c2C)-n2c(C)nnc21` [Example 106, methyl {(6S)-4-[2′-fluoro-5′-({(2S)-1-[(2S,4R)-4-hydroxy-2-({(1S)-1-[4-(4-methyl-1,3-thiazol-5-yl)phenyl]ethyl}carbamoyl)pyrrolidin-1-yl]-3,3-dimethyl-1-oxobutan-2-yl}carbamoyl)[1,1′-biphenyl]-4-yl]-2,3,9-trimethyl-6H-thieno[3,2-f][1,2,4]triazolo[4,3-a][1,4]diazepin-6-yl}acetate], the IC50 in assay [1] amounted to 0.58 nM. This compound registered a DC50 at BRD4 protein of 0.6 nM.

Regarding `COC(=O)C[C@@H]1N=C(c2ccc(-c3ccc(C(=O)N[C@H](C(=O)N4C[C@H](O)C[C@H]4C(=O)NCc4ccc(-c5scnc5CO)cc4)C(C)(C)C)cc3)cc2)c2c(sc(C)c2C)-n2c(C)nnc21` [Example 220, methyl [(6S)-4-(4′-{[(2S)-1-{(2S,4R)-4-hydroxy-2-[({4-[4-(hydroxymethyl)-1,3-thiazol-5-yl]phenyl}methyl)carbamoyl]pyrrolidin-1-yl}-3,3-dimethyl-1-oxobutan-2-yl]carbamoyl}[1,1′-biphenyl]-4-yl)-2,3,9-trimethyl-6H-thieno[3,2-f][1,2,4]triazolo[4,3-a][1,4]diazepin-6-yl]acetate], the IC50 in assay [1] came out at 0.92 nM. Moreover, the DC50 on BRD4 protein was 0.92 nM.

With `COC(=O)C[C@@H]1N=C(c2ccc(-c3ccc(C(=O)N[C@H](C(=O)N4C[C@H](O)C[C@H]4C(=O)N[C@@H](C)c4ccc(-c5scnc5C)cc4)C(C)(C)C)cc3)cc2)c2c(sc(CO)c2C)-n2c(C)nnc21` [Example 209, methyl {(6S)-2-(hydroxymethyl)-4-[4′-({(2S)-1-[(2S,4R)-4-hydroxy-2-({(1S)-1-[4-(4-methyl-1,3-thiazol-5-yl)phenyl]ethyl}carbamoyl)pyrrolidin-1-yl]-3,3-dimethyl-1-oxobutan-2-yl}carbamoyl)[1,1′-biphenyl]-4-yl]-3,9-dimethyl-6H-thieno[3,2-f][1,2,4]triazolo[4,3-a][1,4]diazepin-6-yl}acetate], the IC50 in assay [1] was found to be 0.24 nM. This compound had a DC50 at BRD4 protein of 0.32 nM.

As for `Cc1ncsc1-c1ccc([C@H](C)NC(=O)[C@@H]2C[C@@H](O)CN2C(=O)[C@@H](NC(=O)CCCCCCc2ccc(C3=N[C@@H](C)c4nnc(C)n4-c4sc(C)c(C)c43)cc2)C(C)(C)C)cc1` [Example 194, (2S,4R)-1-{(2S)-3,3-dimethyl-2-[(7-{4-[(6S)-2,3,6,9-tetramethyl-6H-thieno[3,2-f][1,2,4]triazolo[4,3-a] [1,4]diazepin-4-yl]phenyl}heptanoyl)amino]butanoyl}-4-hydroxy-N-{(1S)-1-[4-(4-methyl-1,3-thiazol-5-yl)phenyl]ethyl}pyrrolidine-2-carboxamide], in assay [1], the IC50 came out at 0.17 nM. The compound further gave a DC50 at BRD4 protein of 0.23 nM.

With `COC(=O)C[C@@H]1N=C(c2ccc(-c3ccc(OCC(=O)N[C@H](C(=O)N4C[C@H](O)C[C@H]4C(=O)N[C@@H](C)c4ccc(-c5scnc5C)cc4)C(C)(C)C)cc3C)cc2)c2c(sc(C)c2C)-n2c(C)nnc21` [Example 49, methyl [(6S)-4-{4′-[2-({(2S)-1-[(2S,4R)-4-hydroxy-2-({(1S)-1-[4-(4-methyl-1,3-thiazol-5-yl)phenyl]ethyl}carbamoyl)pyrrolidin-1-yl]-3,3-dimethyl-1-oxobutan-2-yl}amino)-2-oxoethoxy]-2′-methyl[1,1′-biphenyl]-4-yl}-2,3,9-trimethyl-6H-thieno[3,2-f][1,2,4]triazolo[4,3-a] [1,4]diazepin-6-yl]acetate], in assay [1], the IC50 is 0.12 nM. On BRD4 protein, this compound had a DC50 of 0.24 nM.

Take `CNC(=O)C[C@@H]1N=C(c2ccc(-c3ccc(C(=O)N[C@H](C(=O)N4C[C@H](O)C[C@H]4C(=O)N[C@@H](C)c4ccc(-c5scnc5C)cc4)C(C)(C)C)cc3F)cc2)c2c(sc(C)c2C)-n2c(C)nnc21` [Example 206, (2S,4R)-1-{(2S)-2-[(2-fluoro-4′-{(6S)-2,3,9-trimethyl-6-[2-(methylamino)-2-oxoethyl]-6H-thieno[3,2-f] [1,2,4]triazolo[4,3-a][1,4]diazepin-4-yl}[1,1′-biphenyl]-4-carbonyl)amino]-3,3-dimethylbutanoyl}-4-hydroxy-N-{(1S)-1-[4-(4-methyl-1,3-thiazol-5-yl)phenyl]ethyl}pyrrolidine-2-carboxamide]: the IC50 in assay [1] is 0.68 nM. On BRD4 protein, this compound returned a DC50 of 0.73 nM.

`COC(=O)C[C@@H]1N=C(c2ccc(N3CCc4ccc(C(=O)N[C@H](C(=O)N5C[C@H](O)C[C@H]5C(=O)N[C@@H](C)c5ccc(-c6scnc6C)cc5)C(C)(C)C)cc4C3)cc2)c2c(sc(C)c2C)-n2c(C)nnc21` [Example 161, methyl [(6S)-4-{4-[7-({(2S)-1-[(2S,4R)-4-hydroxy-2-({(1S)-1-[4-(4-methyl-1,3-thiazol-5-yl)phenyl]ethyl}carbamoyl)pyrrolidin-1-yl]-3,3-dimethyl-1-oxobutan-2-yl}carbamoyl)-3,4-dihydroisoquinolin-2(1H)-yl]phenyl}-2,3,9-trimethyl-6H-thieno[3,2-f][1,2,4]triazolo[4,3-a][1,4]diazepin-6-yl]acetate]: in assay [1], the IC50 came to 0.22 nM. The same compound registered a 50% degradation concentration (DC50) at BRD4 protein of 0.075 nM.

The values above are taken from patent publication US11542273B2, “Amide compound having bet proteolysis-inducing action and medicinal application thereof” (MITSUBISHI TANABE PHARMA CORPORATION, priority 2018, dated 2023).
